Results: PubChem BioAssay AID2060338 (Molecular Pharmacology Branch, DTP, NCI, 2025)
pIC50: −log10 of the molar value.

System: 556581-035-R-J1-PDC spheroids with HUVEC/MSC, viability
Experiment: Anticancer human tumor 556581-035-R-J1-PDC patient-derived ovarian carcinoma cell line growth inhibition [IpAb]
Conditions: for pIC50: curve of first compound; for viability, T/C: stronger effect = lower value
In short: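 Multi-cell spheroids of 60% tumour cells, 25% HUVEC and 15% MSC in ultra-low-attachment U-bottom wells, treated with agents combined with ipatasertib or abemaciclib. Half-log ranges top out near clinical Cmax, or 10 microM when Cmax is unknown.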
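Further: spheroids exposed to compounds for 7 days before readout.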

Compound `C=CC(=O)N1CCN(c2nc(=O)n(-c3c(C)ccnc3C(C)C)c3nc(-c4c(O)cccc4F)c(F)cc23)C(C)C1` (stereo unspecified) + CC(C)NCC(C(=O)N1CCN(c2ncnc3c2C(C)CC3O)CC1)c1ccc(Cl)cc1 has a pIC50 (second compound 0.1 µM) of 5.27, a pIC50 (second compound 0.316 µM) of 5.19 and a pIC50 (second compound 1 µM) of 5.40. For the same compound, the pIC50 (second compound 3.16 µM) was 5.75, the pIC50 (second compound 10 µM) was > 7.50 and the viability, T/C (second compound 0.1 µM, first compound 0.0316 µM) was 99.9%. The viability, T/C (second compound 0.1 µM, first compound 0.1 µM) was 108%, the viability, T/C (second compound 0.1 µM, first compound 0.316 µM) was 103% and the viability, T/C (second compound 0.1 µM, first compound 1 µM) was 111%. The viability, T/C (second compound 0.1 µM, first compound 3.16 µM) was 68.6%, the viability, T/C (second compound 0.1 µM, first compound 10 µM) was 28.3% and the viability, T/C (second compound 0.316 µM, first compound 0.0316 µM) was 79.8%. The viability, T/C (second compound 0.316 µM, first compound 0.1 µM) was 79.1%, the viability, T/C (second compound 0.316 µM, first compound 0.316 µM) was 74% and the viability, T/C (second compound 0.316 µM, first compound 1 µM) was 85.1%. For the same compound, the viability, T/C (second compound 0.316 µM, first compound 3.16 µM) was 73.4%, the viability, T/C (second compound 0.316 µM, first compound 10 µM) was 35.4% and the viability, T/C (second compound 1 µM, first compound 0.0316 µM) was 74.3%. For the same compound, the viability, T/C (second compound 1 µM, first compound 0.1 µM) was 65.6%, the viability, T/C (second compound 1 µM, first compound 0.316 µM) was 59.8% and the viability, T/C (second compound 1 µM, first compound 1 µM) was 64%. The viability, T/C (second compound 1 µM, first compound 3.16 µM) was 57%, the viability, T/C (second compound 1 µM, first compound 10 µM) was 28.4% and the viability, T/C (second compound 3.16 µM, first compound 0.0316 µM) was 54.5%. For the same compound, the viability, T/C (second compound 3.16 µM, first compound 0.1 µM) was 54.5%, the viability, T/C (second compound 3.16 µM, first compound 0.316 µM) was 52.6% and the viability, T/C (second compound 3.16 µM, first compound 1 µM) was 47.9%. For the same compound, the viability, T/C (second compound 3.16 µM, first compound 3.16 µM) was 48.9%, the viability, T/C (second compound 3.16 µM, first compound 10 µM) was 21.8% and the viability, T/C (second compound 10 µM, first compound 0.0316 µM) was 44.6%. It also gave a viability, T/C (second compound 10 µM, first compound 0.1 µM) of 48.2%, a viability, T/C (second compound 10 µM, first compound 0.316 µM) of 45.5% and a viability, T/C (second compound 10 µM, first compound 1 µM) of 48.5%. It also gave a viability, T/C (second compound 10 µM, first compound 3.16 µM) of 34.9% and a viability, T/C (second compound 10 µM, first compound 10 µM) of 13.5%.
In the case of `Cn1cnc2c(F)c(Nc3ccc(Br)cc3Cl)c(C(=O)NOCCO)cc21` + CC(C)NCC(C(=O)N1CCN(c2ncnc3c2C(C)CC3O)CC1)c1ccc(Cl)cc1, the pIC50 (second compound 0.1 µM) was 6.33, the pIC50 (second compound 0.316 µM) was 6.66 and the pIC50 (second compound 1 µM) was 7.26. For the same compound, the pIC50 (second compound 3.16 µM) was > 8.02, the pIC50 (second compound 10 µM) was > 8.02 and the viability, T/C (second compound 0.1 µM, first compound 0.00949 µM) was 91.4%. It also gave a viability, T/C (second compound 0.1 µM, first compound 0.03 µM) of 89.3%, a viability, T/C (second compound 0.1 µM, first compound 0.0949 µM) of 81.6% and a viability, T/C (second compound 0.1 µM, first compound 0.3 µM) of 55.5%. For the same compound, the viability, T/C (second compound 0.1 µM, first compound 0.949 µM) was 38.1%, the viability, T/C (second compound 0.1 µM, first compound 3 µM) was 14.7% and the viability, T/C (second compound 0.316 µM, first compound 0.00949 µM) was 69.1%. For the same compound, the viability, T/C (second compound 0.316 µM, first compound 0.03 µM) was 60.5%, the viability, T/C (second compound 0.316 µM, first compound 0.0949 µM) was 61% and the viability, T/C (second compound 0.316 µM, first compound 0.3 µM) was 46.4%. For the same compound, the viability, T/C (second compound 0.316 µM, first compound 0.949 µM) was 28.6%, the viability, T/C (second compound 0.316 µM, first compound 3 µM) was 14.2% and the viability, T/C (second compound 1 µM, first compound 0.00949 µM) was 59.7%. For the same compound, the viability, T/C (second compound 1 µM, first compound 0.03 µM) was 55.6%, the viability, T/C (second compound 1 µM, first compound 0.0949 µM) was 46.1% and the viability, T/C (second compound 1 µM, first compound 0.3 µM) was 31.7%. The viability, T/C (second compound 1 µM, first compound 0.949 µM) was 20.4%, the viability, T/C (second compound 1 µM, first compound 3 µM) was 7.02% and the viability, T/C (second compound 3.16 µM, first compound 0.00949 µM) was 45.9%. For the same compound, the viability, T/C (second compound 3.16 µM, first compound 0.03 µM) was 40.7%, the viability, T/C (second compound 3.16 µM, first compound 0.0949 µM) was 33.9% and the viability, T/C (second compound 3.16 µM, first compound 0.3 µM) was 25%. For the same compound, the viability, T/C (second compound 3.16 µM, first compound 0.949 µM) was 15.4%, the viability, T/C (second compound 3.16 µM, first compound 3 µM) was 6.95% and the viability, T/C (second compound 10 µM, first compound 0.00949 µM) was 37.3%. It also gave a viability, T/C (second compound 10 µM, first compound 0.03 µM) of 38.6%, a viability, T/C (second compound 10 µM, first compound 0.0949 µM) of 29.6% and a viability, T/C (second compound 10 µM, first compound 0.3 µM) of 21.2%. It also gave a viability, T/C (second compound 10 µM, first compound 0.949 µM) of 13.8% and a viability, T/C (second compound 10 µM, first compound 3 µM) of 3.58%.
In the case of `CCN1CCN(Cc2ccc(Nc3ncc(F)c(-c4cc(F)c5nc(C)n(C(C)C)c5c4)n3)nc2)CC1`, the viability, T/C (compound 1 µM) was 52.7% [middle of 13 runs].
